Assay [1] deals with SHP-2 enzyme (Met1-Leu525) (Homo sapiens (Human), UniProt Q06124). Description: SHP2 inhibition enzymatic assay. Format: biochemical. As to conditions: read-out: SHP2wt-IC50. The gist of the method:
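Compounds were preincubated 30 min with 0.5 nM SHP-2 (Met1-Leu525) plus 500 nM IRS1 activating peptide (pH 7.2 HEPES, 5 mM DTT), then 75 μM DiFMUP substrate reacted 30 min at room temperature. After bpV quench, DiFMUP fluorescence gave % inhibition; four-parameter logistic fit yielded IC50.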

Assay [2] relates to ERK phosphorylation in KYSE-520 cells. Description: Phospho-ERK cellular assay. Format: cell-based. As to conditions: KYSE-520 cells, 2 h at 37° C., phospho-ERK1/2 (Thr202/Tyr204) TR-FRET, read-out: PERK IC50. Summed up: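 TR-FRET read-out of ERK1/2 Thr202/Tyr204 phosphorylation was taken after overnight antibody incubation at room temperature. Before that, KYSE-520 cells were treated 2 h at 37 °C with compound dilutions and lysed 30 min. Percent inhibition relative to vehicle and cell-free wells was fitted four-parametrically to give IC50.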
For orientation: In TR-FRET formats the signal depends on donor and acceptor labels being close together.

Where [3] appears, read: 0.5 nM SHP-2 activated by 500 nM IRS1 peptide, 75 μM DiFMUP substrate.

pIC50: −log10 of the molar value. Read-outs that look alike come from different tables or passages of the source. A value given as a limit tells only on which side of the number the result lay.

Data on 23 compounds can be found in patent US20240109900A1, “AZABICYCLIC SHP2 INHIBITORS” (IRBM S.P.A., priority 2021, published 2024).

Sequence of SHP-2 enzyme (Met1-Leu525) (Q06124 1-525): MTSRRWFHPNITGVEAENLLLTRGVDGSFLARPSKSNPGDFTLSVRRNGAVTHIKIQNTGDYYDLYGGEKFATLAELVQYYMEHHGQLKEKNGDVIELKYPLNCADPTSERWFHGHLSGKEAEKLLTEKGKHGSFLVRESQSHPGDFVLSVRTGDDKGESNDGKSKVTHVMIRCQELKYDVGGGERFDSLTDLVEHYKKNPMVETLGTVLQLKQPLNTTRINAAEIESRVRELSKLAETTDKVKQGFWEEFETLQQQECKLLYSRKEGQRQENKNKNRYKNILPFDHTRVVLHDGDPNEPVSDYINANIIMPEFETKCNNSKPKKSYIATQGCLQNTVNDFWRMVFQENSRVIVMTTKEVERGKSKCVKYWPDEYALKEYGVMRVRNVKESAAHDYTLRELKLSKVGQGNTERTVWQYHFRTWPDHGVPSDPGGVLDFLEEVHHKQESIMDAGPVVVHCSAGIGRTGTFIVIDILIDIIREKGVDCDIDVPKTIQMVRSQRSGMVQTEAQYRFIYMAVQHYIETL

For `Cc1csc(C2(CN)C3CCN(c4ncc(Sc5ccnc(N)c5Cl)c5nccn45)CC32)n1` (stereo not shown) [Example 76, 4-((5-(7-(aminomethyl)-7-(4-methylthiazol-2-yl)-3-azabicyclo[4.1.0]heptan-3-yl)imidazo[1,2-c]pyrimidin-8-yl)thio)-3-chloropyridin-2-amine], the results for the pIC50 in assay [1] and in assay [2] (Homo sapiens) were greater than 6.30 and less than 5.30, respectively.
On to `Cc1csc([C@@]2(CN)[C@@H]3CN(c4cnc5c(-c6ccn7nccc7c6Cl)n[nH]c5n4)C[C@@H]32)n1` [Example 458], for which the pIC50 (as a rule, the negative decadic logarithm of the IC50, by convention in mol/L) is greater than 6.30 in assay [1] (setting [3]) and greater than 6.00 in assay [2].
`NC[C@]1(c2ccccc2F)[C@@H]2CCN(c3cnc4c(C#Cc5ccccc5F)n[nH]c4n3)C[C@@H]21` [Example 334, ((1S,6R,7R)-7-(2-fluorophenyl)-3-(3-((2-fluorophenyl)ethynyl)-1H-pyrazolo[3,4-b]pyrazin-6-yl)-3-azabicyclo[4.1.0]heptan-7-yl)methanamine]: the pIC50 was greater than 6.30 in assay [1] (setting [3]) and greater than 6.00 in assay [2] (Homo sapiens, KYSE-520, 2 h).
Consider `NCC1(c2ccccc2F)C2CCN(c3cnc4c(-c5cccc(Cl)c5Cl)n[nH]c4n3)CC21` (stereo not shown) [Example 3, (3-(3-(2,3-dichlorophenyl)-1H-pyrazolo[3,4-b]pyrazin-6-yl)-7-(2-fluorophenyl)-3-azabicyclo[4.1.0]heptan-7-yl)methanamine], for which the pIC50 in assay [1] (setting [3]) was greater than 6.30; in assay [2] (Homo sapiens, KYSE-520, 2 h) it was greater than 6.00.
The corresponding values for `NC[C@]1(c2ccccc2F)[C@@H]2CCN(c3cnc4c(-c5ccc6nn(C7COC7)cc6c5Cl)n[nH]c4n3)C[C@@H]21` [Example 229, ((1S,6R,7R)-3-(3-(4-chloro-2-(oxetan-3-yl)-2H-indazol-5-yl)-1H-pyrazolo[3,4-b]pyrazin-6-yl)-7-(2-fluorophenyl)-3-azabicyclo[4.1.0]heptan-7-yl)methanamine] are greater than 6.30 and greater than 6.00.
`Cc1cc(C2(CN)C3CCN(c4cnc5c(-c6ccnc7ccccc67)n[nH]c5n4)CC32)no1` (stereo not shown) [Example 27, (7-(5-methylisoxazol-3-yl)-3-(3-(quinolin-4-yl)-1H-pyrazolo[3,4-b]pyrazin-6-yl)-3-azabicyclo[4.1.0]heptan-7-yl)methanamine]: the pIC50 was greater than 6.30 in assay [1] (setting [3]) and greater than 6.00 in assay [2] (Homo sapiens, KYSE-520, 2 h).
The corresponding values for `NC[C@]1(c2ccccc2F)[C@@H]2CCN(c3cnc4c(Sc5ccnc(N)c5Cl)n[nH]c4n3)C[C@@H]21` [Example 397, 4-((6-((1S,6R,7R)-7-(aminomethyl)-7-(2-fluorophenyl)-3-azabicyclo[4.1.0]heptan-3-yl)-1H-pyrazolo[3,4-b]pyrazin-3-yl)thio)-3-chloropyridin-2-amine] are greater than 6.30 and greater than 6.00.
The corresponding values for `Cc1c(-c2n[nH]c3nc(N4CC[C@@H]5[C@H](C4)[C@@]5(CN)c4c(F)cccc4F)cnc23)ccc2nn(C)cc12` [Example 106, ((1S,6R,7R)-7-(2,6-difluorophenyl)-3-(3-(2,4-dimethyl-2H-indazol-5-yl)-1H-pyrazolo[3,4-b]pyrazin-6-yl)-3-azabicyclo[4.1.0]heptan-7-yl)methanamine] are greater than 6.30 and greater than 6.00.
Regarding `Cc1nc2ccc(-c3n[nH]c4nc(N5CC[C@@H]6[C@H](C5)[C@@]6(CN)c5ccc(F)cn5)cnc34)c(Cl)c2s1` [Example 121, ((1S,6R,7S)-3-(3-(7-chloro-2-methylbenzo[d]thiazol-6-yl)-1H-pyrazolo[3,4-b]pyrazin-6-yl)-7-(5-fluoropyridin-2-yl)-3-azabicyclo[4.1.0]heptan-7-yl)methanamine], the pIC50 in assay [1] (setting [3]) was greater than 6.30; in assay [2] (Homo sapiens, KYSE-520, 2 h) it was greater than 6.00.
For `NC[C@]1(c2ccccc2F)[C@@H]2CCN(c3cnc4c(-c5ccc(F)c6[nH]c(=O)ccc56)n[nH]c4n3)C[C@@H]21` [Example 236, 5-(6-((1S,6R,7R)-7-(aminomethyl)-7-(2-fluorophenyl)-3-azabicyclo[4.1.0]heptan-3-yl)-1H-pyrazolo[3,4-b]pyrazin-3-yl)-8-fluoroquinolin-2(1H)-one], the pIC50 is greater than 6.30 in assay [1] (setting [3]) and greater than 6.00 in assay [2] (Homo sapiens, KYSE-520, 2 h).
For the compound `NC[C@]1(c2ccccc2F)[C@@H]2CCN(c3cnc4c(-c5ccc6nccnc6c5Cl)n[nH]c4n3)C[C@@H]21` [Example 167, ((1S,6R,7R)-3-(3-(5-chloroquinoxalin-6-yl)-1H-pyrazolo[3,4-b]pyrazin-6-yl)-7-(2-fluorophenyl)-3-azabicyclo[4.1.0]heptan-7-yl)methanamine], the pIC50 in assay [1] (setting [3]) was greater than 6.30; in assay [2] (Homo sapiens, KYSE-520, 2 h) it was greater than 6.00.
In the case of `Cn1cnc2ccc(-c3n[nH]c4nc(N5CC[C@@H]6[C@H](C5)[C@@]6(CN)c5ccccc5F)cnc34)c(Cl)c21` [Example 338, ((1S,6R,7R)-3-(3-(7-chloro-1-methyl-1H-benzo[d]imidazol-6-yl)-1H-pyrazolo[3,4-b]pyrazin-6-yl)-7-(2-fluorophenyl)-3-azabicyclo[4.1.0]heptan-7-yl)methanamine], the pIC50 in assay [1] (setting [3]) was greater than 6.30; in assay [2] (Homo sapiens, KYSE-520, 2 h), greater than 6.00.
Regarding `Cn1cc2c(Cl)c(-c3n[nH]c4nc(N5C[C@@H]6[C@H](C5)[C@@]6(CN)c5nc(Cl)cs5)cnc34)ccc2n1` [Example 487, ((1R,5S,6r)-3-(3-(4-chloro-2-methyl-2H-indazol-5-yl)-1H-pyrazolo[3,4-b]pyrazin-6-yl)-6-(4-chlorothiazol-2-yl)-3-azabicyclo[3.1.0]hexan-6-yl)methanamine], the pIC50 is greater than 6.30 in assay [1] (setting [3]) and greater than 6.00 in assay [2] (Homo sapiens, KYSE-520, 2 h).
With `Cn1c(N2CC[C@@H]3[C@H](C2)[C@@]3(CN)c2ccccc2F)nc2[nH]cc(-c3ccc4c(=O)[nH]ccc4c3F)c2c1=O` [Example 380, 6-(2-((1S,6R,7R)-7-(aminomethyl)-7-(2-fluorophenyl)-3-azabicyclo[4.1.0]heptan-3-yl)-3-methyl-4-oxo-4,7-dihydro-3H-pyrrolo[2,3-d]pyrimidin-5-yl)-5-fluoroisoquinolin-1(2H)-one], the pIC50 in assay [1] (setting [3]) was greater than 6.30; in assay [2] (Homo sapiens, KYSE-520, 2 h), greater than 6.00.
Take `CNC(=O)c1ccc(-c2n[nH]c3nc(N4CC[C@@H]5[C@H](C4)[C@@]5(CN)c4cccc(F)c4F)cnc23)c2cccnc12` [Example 267, 5-(6-((1S,6R,7R)-7-(aminomethyl)-7-(2,3-difluorophenyl)-3-azabicyclo[4.1.0]heptan-3-yl)-1H-pyrazolo[3,4-b]pyrazin-3-yl)-N-methylquinoline-8-carboxamide]: the pIC50 is greater than 6.30 in assay [1] (setting [3]) and greater than 6.00 in assay [2] (Homo sapiens, KYSE-520, 2 h).
Regarding `NC[C@]1(c2ccccc2F)[C@@H]2CCN(c3cnc4c(-c5ccc6c(c5)CNC6=O)n[nH]c4n3)C[C@@H]21` [Example 218, 5-(6-((1S,6R,7R)-7-(aminomethyl)-7-(2-fluorophenyl)-3-azabicyclo[4.1.0]heptan-3-yl)-1H-pyrazolo[3,4-b]pyrazin-3-yl)isoindolin-1-one], the negative logarithm of the IC50 (pIC50) in assay [1] (setting [3]) was greater than 6.30; in assay [2] (Homo sapiens, KYSE-520, 2 h) it was greater than 6.00.
With `NC[C@]1(c2ccccc2)[C@@H]2CN(c3cnc4c(-c5ccc(F)c6ncccc56)n[nH]c4n3)C[C@@H]21` [Example 510, ((1R,5S,6s)-3-(3-(8-fluoroquinolin-5-yl)-1H-pyrazolo[3,4-b]pyrazin-6-yl)-6-phenyl-3-azabicyclo[3.1.0]hexan-6-yl)methanamine], the pIC50 is greater than 6.30 in assay [1] (setting [3]) and greater than 6.00 in assay [2] (Homo sapiens, KYSE-520, 2 h).
As to `COc1cccc2c(-c3n[nH]c4nc(N5CC[C@@H]6[C@H](C5)[C@@]6(CN)c5cc(C)on5)cnc34)ccnc12` [Example 125, ((1S,6R,7S)-3-(3-(8-methoxyquinolin-4-yl)-1H-pyrazolo[3,4-b]pyrazin-6-yl)-7-(5-methylisoxazol-3-yl)-3-azabicyclo[4.1.0]heptan-7-yl)methanamine], the pIC50 in assay [1] (setting [3]) is greater than 6.30; in assay [2] (Homo sapiens, KYSE-520, 2 h) it was greater than 6.00.
For the compound `Cc1cc([C@@]2(CN)[C@@H]3CN(c4cnc5c(-c6ccc7nn(C)cc7c6Cl)n[nH]c5n4)C[C@@H]32)no1` [Example 275, ((1R,5S,6r)-3-(3-(4-chloro-2-methyl-2H-indazol-5-yl)-1H-pyrazolo[3,4-b]pyrazin-6-yl)-6-(5-methylisoxazol-3-yl)-3-azabicyclo[3.1.0]hexan-6-yl)methanamine], the results for the pIC50 in assay [1] (setting [3]) and in assay [2] were greater than 6.30 and greater than 6.00, respectively.
For the compound `NC[C@]1(c2ccccc2F)[C@@H]2CCN(c3cnc4c(ccn4-c4ccnc5ccccc45)n3)C[C@@H]21` [Example 382, ((1S,6R,7R)-7-(2-fluorophenyl)-3-(5-(quinolin-4-yl)-5H-pyrrolo[2,3-b]pyrazin-2-yl)-3-azabicyclo[4.1.0]heptan-7-yl)methanamine], the pIC50 in assay [1] (setting [3]) was greater than 6.30; in assay [2] (Homo sapiens, KYSE-520, 2 h), less than 5.30.
Consider `NC[C@]1(c2ccccc2F)[C@@H]2CCN(c3cnc4c(-c5cccc6ncccc56)n[nH]c4n3)C[C@@H]21` [Example 242, ((1S,6R,7R)-7-(2-fluorophenyl)-3-(3-(quinolin-5-yl)-1H-pyrazolo[3,4-b]pyrazin-6-yl)-3-azabicyclo[4.1.0]heptan-7-yl)methanamine], for which the pIC50 in assay [1] (setting [3]) is greater than 6.30; in assay [2] (Homo sapiens, KYSE-520, 2 h), greater than 6.00.
In the case of `Cc1csc([C@@]2(CN)[C@@H]3CN(c4cnc5c(-c6ccc7nnsc7c6Cl)n[nH]c5n4)C[C@@H]32)n1` [Example 479], the pIC50 in assay [1] (setting [3]) is greater than 6.30; in assay [2] it was greater than 6.00.
For `Cc1csc(C2(CN)[C@@H]3CN(c4cnc5c(-c6cccn7nccc67)n[nH]c5n4)C[C@@H]32)n1` (stereo partly shown) [Example 482], in that order: greater than 6.30 and greater than 6.00.
